Test results from ChEMBL document CHEMBL5126515, “Progress of thrombus formation and research on the structure-activity relationship for antithrombotic drugs” (Eur J Med Chem, 2022).
Values after ≈ are worked out from the molar mass of the structure shown.

How the values were obtained:
[1] = system: Plasma; experiment: Antiplatelet activity in rabbit plasma assessed as inhibition of arachidonic acid induced platelet aggregation; format: functional, cell-free; conditions: Oryctolagus cuniculus
[2] = organism: Rattus norvegicus; experiment: Antithrombotic activity in arteriovenous bypass thrombo-genesis rat model assessed as quality of thrombosis; format: functional
[3] = organism: Rattus norvegicus; experiment: Antiplatelet aggregration activity in arteriovenous bypass thrombosis rat model assessed as aggregation inhibition rate relative to control; format: functional
[4] = biological target: Coagulation factor X (Mus musculus, UniProt O88947); experiment: Inhibition of mouse FXa
[5] = biological target: P2Y purinoceptor 1 (Homo sapiens, UniProt P47900); experiment: Antagonist activity at P2Y1 receptor (unknown origin); format: functional
[6] = system: Plasma (Mus musculus); experiment: Anticoagulant activity in mouse plasma assessed as prothrombin time
[7] = system: Plasma; experiment: Anticoagulant activity in rabbit plasma assessed as thrombin time; format: functional, Oryctolagus cuniculus
[8] = system: Plasma; experiment: Anticoagulant activity in rabbit plasma assessed as prothrombin time; format: functional, Oryctolagus cuniculus
[9] = system: Plasma; experiment: Anticoagulant activity in rabbit plasma assessed as activated partial thromboplastin time; format: functional, Oryctolagus cuniculus
[10] = Antiplatelet aggregation activity in rabbit platelet assessed as reduction in ADP-induced platelet aggregation; format: functional, cell-based; conditions: Oryctolagus cuniculus
[11] = system: Blood; experiment: Antithrombotic activity in ferric chloride-treated carotid artery thrombosis Sprague-dawley rat blood assessed as clot weight at 10 mg/kg (RVB = 72.50 +/- 2 mg); format: functional
[12] = system: Blood; experiment: Antithrombotic activity in ferric chloride-treated carotid artery thrombosis Sprague-dawley rat blood assessed as clot weight at 50 mg/kg (RVB = 72.50 +/- 2 mg); format: functional
[13] = system: Blood; experiment: Antithrombotic activity in photochemically induced arterial thrombosis Cynomolgus monkey blood assessed as decrease in occlusion time (reference value: 119 +/- 17.40 min); format: functional, Macaca fascicularis
[14] = system: Plasma; experiment: Antithrombotic activity in rat plasma; format: functional
[15] = system: Plasma; experiment: Anticoagulant activity in mouse plasma assessed inhibition of thrombin-induced platelet aggregation; format: functional, cell-free
[16] = system: Plasma; experiment: Antithrombotic activity in mouse plasma assessed as clotting time administered IV
[17] = system: Plasma; experiment: Antithrombotic activity in mouse plasma assessed as prothrombin time administered IV
[18] = Anticoagulant activity in human platelet assessed as reduction in thrombin-induced platelet aggregation in presence of ADP by measuring turbidity; format: functional, cell-based
[19] = Antiplatelet activity in human platelet; format: functional, cell-based
[20] = system: Platelet; experiment: Potency index, ratio of IC50 for MCI-154 to IC50 for test compound against antiplatelet activity in human platelet; format: functional
[21] = system: Erythrocyte; experiment: Anticoagulant activity in human RBC assessed as decrease in epinephrine induced platelet aggregation by measuring increased clotting time relative to control; format: functional
[22] = system: Plasma; experiment: Antiplatelet aggregation activity in rabbit plasma incubated for 5 mins; format: functional, cell-free; conditions: Oryctolagus cuniculus
[23] = biological target: Coagulation factor X (Homo sapiens, UniProt P00742); experiment: Binding affinity to FXa (unknown origin)
[24] = Antiplatelet activity in platelet (unknown origin) assessed as inhibition of ADP-induced platelet aggregation relative to control; format: functional, cell-based; conditions: for IC50: platelet
[25] = Antithrombotic activity in fresh platelet rich plasma; format: functional, cell-based
[26] = biological target: Prothrombin (Homo sapiens, UniProt P00734); experiment: Inhibition of thrombin in human plasma; format: cell-free
[27] = system: Plasma; experiment: Antithrombotic activity in human plasma assessed as thrombin time; format: functional
[28] = system: Platelet; experiment: Potency index ratio of IC50 for CCI-17810 to IC50 test compound against antiplatelet activity in platelet (unknown origin); format: functional
[29] = system: Plasma; experiment: Antiplatelet activity in plasma (unknown origin) assessed as reduction of ADP-induced platelet aggregation by aggregometer; format: functional, cell-free; conditions: Homo sapiens
[30] = system: Plasma; experiment: Antiplatelet activity in plasma (unknown origin) assessed as reduction of thrombin-induced platelet aggregation by aggregometer; format: functional, cell-free; conditions: Homo sapiens

Sequence of P2Y purinoceptor 1 (P47900 whole entry): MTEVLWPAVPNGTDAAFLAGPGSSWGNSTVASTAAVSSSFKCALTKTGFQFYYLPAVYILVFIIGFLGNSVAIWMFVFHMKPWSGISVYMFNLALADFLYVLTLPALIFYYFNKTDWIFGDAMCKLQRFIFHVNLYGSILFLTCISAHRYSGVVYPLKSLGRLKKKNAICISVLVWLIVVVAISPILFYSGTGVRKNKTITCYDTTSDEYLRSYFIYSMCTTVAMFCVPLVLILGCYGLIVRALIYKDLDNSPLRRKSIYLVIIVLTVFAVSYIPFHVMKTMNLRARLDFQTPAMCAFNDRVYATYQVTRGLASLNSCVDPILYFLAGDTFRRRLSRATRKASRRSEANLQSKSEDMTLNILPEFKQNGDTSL
Sequence of Coagulation factor X (Mus musculus, UniProt O88947) (O88947 41-180 limits assumed): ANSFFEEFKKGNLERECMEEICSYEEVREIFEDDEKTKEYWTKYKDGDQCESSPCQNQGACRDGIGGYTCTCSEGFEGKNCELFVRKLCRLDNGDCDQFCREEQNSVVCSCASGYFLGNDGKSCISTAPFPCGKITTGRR
Sequence of Coagulation factor X (Mus musculus, UniProt O88947) (O88947 232-481 limits assumed): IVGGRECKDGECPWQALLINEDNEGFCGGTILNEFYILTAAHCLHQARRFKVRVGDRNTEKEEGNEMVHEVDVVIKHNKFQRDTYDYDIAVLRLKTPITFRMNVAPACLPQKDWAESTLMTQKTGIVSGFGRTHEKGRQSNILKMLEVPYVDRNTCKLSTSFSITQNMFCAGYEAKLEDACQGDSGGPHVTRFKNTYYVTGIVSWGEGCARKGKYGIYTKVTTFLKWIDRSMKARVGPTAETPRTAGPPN
Sequence of Coagulation factor X (Homo sapiens, UniProt P00742) (P00742 41-179 limits assumed): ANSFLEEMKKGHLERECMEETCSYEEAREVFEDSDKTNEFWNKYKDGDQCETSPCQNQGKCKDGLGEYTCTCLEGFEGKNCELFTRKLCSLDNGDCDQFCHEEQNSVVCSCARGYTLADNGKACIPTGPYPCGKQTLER
Sequence of Coagulation factor X (Homo sapiens, UniProt P00742) (P00742 235-488 limits assumed): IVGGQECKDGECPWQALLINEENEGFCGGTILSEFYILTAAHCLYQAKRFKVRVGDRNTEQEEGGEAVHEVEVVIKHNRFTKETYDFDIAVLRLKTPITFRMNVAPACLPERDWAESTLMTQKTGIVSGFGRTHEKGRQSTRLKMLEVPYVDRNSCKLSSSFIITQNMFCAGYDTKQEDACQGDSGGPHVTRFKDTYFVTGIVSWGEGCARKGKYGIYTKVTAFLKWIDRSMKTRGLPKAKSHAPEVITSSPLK

## Cc1ccc2c(c1)NC(CC(=O)c1ccccc1)C(=O)O2 (stereo not given)
[1]
  IC50: 18 µg/mL (≈ 63.8 µM)

## CC(=O)Oc1ccccc1C(=O)O [ASPIRIN]
[2]
  Activity: 10.5 mg
[3]
  inhibition (INH): 14.7%

## CC(=N)N1CCC(Oc2ccc3c(c2)C(=O)NS(=O)(=O)N3C/C=C/c2cccc(C(=N)N)c2)CC1
[4]
  IC50: 0.0028 µM

## CNc1nc(Cl)nc2c1ncn2CCC(COP(=O)(O)O)COP(=O)(O)O
[5]
  IC50: 0.84 µM

## COC(=O)c1ccccc1OCCOc1ccc2c(C)cc(=O)oc2c1
[6]
  Time: 8.44 s

## COc1cc(O)c2c(=O)c(O)c(-c3ccc(O)c(O)c3)oc2c1 [RHAMNETIN]
[7]
  Time: 23 s
[8]
  Time: 72.6 s
[9]
  Time: 6.8 s

## O=C(O)/C=C/c1ccc(Cn2ccnc2)cc1 [OZAGREL]
[10]
  IC50: 2850 µM

## O=C(COCC(=O)N1CCN(C(c2ccccc2)c2ccccc2)CC1)Nc1ccc(Cl)cc1C(=O)[O-].[Na+]
[11]
  Activity: 60.9 mg
[12]
  Activity: 56.8 mg
[13]
  Time: 53.9 min

## CC(=N)N1CCC(Oc2ccc3c(c2)C(=O)NS(=O)(=O)N3CC(=O)Nc2cccc(C(=N)N)c2)CC1
[4]
  IC50: 0.0025 µM

## COc1cc(OC)c2c(=O)c(O)c(-c3ccc(O)c(O)c3)oc2c1
[7]
  Time: 21.8 s
[8]
  Time: 67.6 s
[9]
  Time: 6.9 s

## N#Cc1ccc(S[C@H]2C[C@@H](O)[C@H](O)CS2)cc1
[14]
  ED50: 7 mg/kg

## CCOC(=O)CCN(C(=O)c1ccc2c(c1)nc1n2CCN(CC(=O)OCc2ccccc2)C1Cc1ccc(/C(N)=N/CC(=O)OCc2ccccc2)cc1)c1ccccc1 (stereo not given)
[15]
  IC50: 0.47 µM

## O=C(Nc1ccc2oc(=O)ccc2c1)c1ccc(-c2noc(CCl)n2)cc1
[16]
  Time: 17.7 s
[17]
  Time: 42.3 s

## CCCCCCCCN1CCN(c2ccc(C3=NNC(=O)CC3)cc2)CC1
[10]
  IC50: 2.5 µM

## O=C1CNC(=O)C(Cc2c[nH]cn2)N1 (stereo not given)
[18]
  IC50: 66 µM

## CC(=O)Oc1ccccc1C(=O)Oc1ccc(/C=C/C(=O)OCCCCO[N+](=O)[O-])cc1
[3]
  inhibition (INH): 43.9%

## CCCCCOC(=O)C/N=C(\N)c1ccc(CC2c3nc4cc(C(=O)N(CCC(=O)OCC)c5ccccc5)ccc4n3CCN2CC(=O)OCCCCC)cc1 (stereo not given)
[15]
  IC50: 0.57 µM

## CNc1ncnc2c1ncn2CCC(COP(=O)(O)O)COP(=O)(O)O
[5]
  IC50: 1.6 µM

## CCCN(CCC)CC(=O)Nc1ccc(C2=NNC(=O)CC2)cc1
[19]
  IC50: 0.03 µM
[20]
  Ratio IC50: 10

## CC(=O)CC(c1ccccc1)c1c(O)c2ccccc2oc1=O (stereo not given) [WARFARIN]
[6]
  Time: 7.97 s
[16]
  Time: 23.2 s
[17]
  Time: 42.3 s

## O=C(OCCOc1ccc2ccc(=O)oc2c1)c1ccccc1OCCOc1ccc2ccc(=O)oc2c1
[6]
  Time: 10.88 s

## COc1cc(/C=C/C(=O)O)ccc1OCc1cccnc1
[10]
  IC50: 1760 µM

## Cn1c(-c2ccc(Br)s2)nc2cc(-c3nnc(-c4cc(-c5cc(F)cc(F)c5)nc5ccccc45)o3)ccc21
[21]
  inhibition (INH): 93.4%

## CCN1C(=O)COc2cc(NC(=O)CCCl)ccc21
[22]
  IC50: 8.94 µM

## COc1ccc(C(=O)Nc2ccccc2NC(=O)c2ccc(OC)cc2)cc1
[23]
  Ki: 1 µM

## COc1cc(/C=C/C(=O)OCCCCCCCCCOc2no[n+]([O-])c2S(=O)(=O)c2ccccc2)ccc1OC(=O)c1ccccc1OC(C)=O
[3]
  inhibition (INH): 15.7%

## Cn1c(CNc2ccc(C(=N)N)cc2)nc2cc(C(=O)N(CCC(=O)O)c3ccccn3)ccc21 [DABIGATRAN]
[15]
  IC50: 0.6 µM

## COc1cc(C(=O)Nc2cc(C(N)=O)ccc2NC(=O)c2ccc(-n3ccccc3=O)cc2)ccc1O
[8]
  Time: 8.8 s

## COc1cc(/C=C/C(=O)O)ccc1OCCN1CCOCC1
[24]
  inhibition (INH): 91.4%

## COc1cc(/C=C/C(=O)OC2COC3C(O[N+](=O)[O-])COC23)ccc1OC(=O)c1ccccc1OC(C)=O (stereo not given)
[3]
  inhibition (INH): 28.7%

## COc1cc(/C=C/C(=O)O)ccc1OCCN(C)C
[24]
  inhibition (INH): 83.1%

## Cc1cc(=O)oc2cc(OCCOc3ccccc3C(=O)OCCOc3ccc4ccc(=O)oc4c3)ccc12
[6]
  Time: 13.1 s

## CNc1ncnc2c1ncn2CC(COP(=O)(O)O)COP(=O)(O)O
[5]
  IC50: 1.09 µM

## O=C(CC1CCCCCCCCCNC(=O)OCOC(=O)C(Cc2ccccc2)NC1=O)OCc1ccccc1 (stereo not given)
[25]
  IC50: 0.2 µM

## CC1(C)[C@@H](OC(=O)c2ccccc2C(=O)O)CC[C@]2(C)[C@H]3C(=O)C=C4[C@@H]5C[C@@](C)(C(=O)O)CC[C@]5(C)CC[C@@]4(C)[C@]3(C)CC[C@@H]12
[26]
  IC50: 114 µM
[27]
  Time: 118.3 s

## CNc1nc(Cl)nc2c1ncn2CC(COP(=O)(O)O)COP(=O)(O)O
[5]
  IC50: 0.48 µM

## CCOC(=O)CCN(C(=O)c1ccc2c(c1)nc1n2CCN(CC(=O)OCC)C1Cc1ccc(/C(N)=N/CC(=O)OCC)cc1)c1ccccc1 (stereo not given)
[15]
  IC50: 0.32 µM

## CC(=O)Nc1ccc(C(=O)Nc2cc(C(N)=O)ccc2NC(=O)c2ccc(-n3ccccc3=O)cc2)cc1Cl
[8]
  Time: 10.2 s

## COc1cc(/C=C/C(=O)OCc2c(-c3ccccc3)no[n+]2[O-])ccc1OC(=O)c1ccccc1OC(C)=O
[3]
  inhibition (INH): 12.1%

## CC(=N)N1CCC(Oc2ccc(N(Cc3ccc4ccc(C(=N)N)cc4c3)S(=O)(=O)CC(=O)O)cc2)CC1 [YM-60828]
[4]
  IC50: 0.006 µM

## O=C(O)CC1CCCCCCCCCNC(=O)OCOC(=O)C(Cc2ccccc2)NC1=O (stereo not given)
[25]
  IC50: 0.4 µM

## CC1CC(=O)NN=C1c1ccc(NC(=O)CN2CCCCC2)cc1 (stereo not given)
[19]
  IC50: 0.05 µM

## CC(C)[C@](O)(C(=O)OCC1=CCN2CC[C@@H](O)[C@@H]12)[C@H](C)O
[24]
  IC50: 0.49 µM
[10]
  IC50: 12.5 µM

## CC1CC(=O)NN=C1c1ccc(NC(=O)Cn2ccnc2)cc1 (stereo not given)
[19]
  IC50: 0.06 µM

## CN(C)C(=O)c1ccc(NC(=O)c2ccc(-n3ccccc3=O)cc2)c(NC(=O)c2ccc(Cl)c(Cl)c2)c1
[8]
  Time: 9.5 s

## COc1cc(/C=C/C(=O)O)ccc1O [FERULATE]
[10]
  IC50: 19600 µM

## COc1ccc(-c2oc3cc(O)cc(O)c3c(=O)c2O)cc1OC
[7]
  Time: 9.9 s
[8]
  Time: 58.7 s
[9]
  Time: 5.8 s

## CC(=N)N1CCC(Oc2ccc3c(c2)C(=O)NS(=O)(=O)N3Cc2ccc3ccc(C(=N)N)cc3c2)CC1
[4]
  IC50: 0.0021 µM

## COc1cc(/C=C/C(=O)OCCOCCO[N+](=O)[O-])ccc1OC(=O)c1ccccc1OC(C)=O
[3]
  inhibition (INH): 16%

## CCCN(CCC)CC(=O)N1CCN(c2ccc(C3=NNC(=O)CC3C)cc2)CC1 (stereo not given)
[24]
  IC50: 0.008 µM
[28]
  Ratio IC50: 60

## N#Cc1ccc(SC2SC[C@H](O)[C@@H](O)[C@H]2O)cc1 (stereo not given in full)
[14]
  ED50: 15 mg/kg

## O=C(CC1Nc2c(ccc(Cl)c2[N+](=O)[O-])OC1=O)c1ccc(Br)cc1 (stereo not given)
[1]
  IC50: 17 µg/mL (≈ 39.8 µM)

## COc1cc(O)cc2oc(-c3ccc(O)c(O)c3)c(O)c(=O)c12
[7]
  Time: 19.4 s
[8]
  Time: 49.2 s
[9]
  Time: 7.6 s

## CCOC(=O)CCN(C(=O)c1ccc2c(c1)nc1n2CCN(CC(=O)OC(C)(C)C)C1Cc1ccc(/C(N)=N/CC(=O)OC(C)(C)C)cc1)c1ccccc1 (stereo not given)
[15]
  IC50: 0.11 µM

## O=C(O)C(Cc1ccc2c(c1)OCC(COCC1CCNCC1)O2)NS(=O)(=O)c1ccccc1 (stereo not given)
[29]
  IC50: 41.7 µM
[30]
  IC50: 22.2 µM

## O=C1CCC(c2ccc(Nc3ccncc3)cc2)=NN1 [SENAZODAN]
[19]
  IC50: 0.36 µM

## COc1ccc(-n2nc(C(N)=O)c3c2C(=O)N(c2ccc(N4CCCCC4=O)cc2)CC3)cc1 [APIXABAN]
[8]
  Time: 10 s

## CCCN(CCC)CC(=O)Nc1ccc(C2=NNC(=O)CC2C)cc1 (stereo not given)
[19]
  IC50: 0.085 µM

## N#Cc1ccc(S[C@@H]2SC[C@@H](O)[C@H](O)[C@H]2O)cc1 [BECIPARCIL]
[14]
  ED50: 25 mg/kg

## CCN1C(=O)COc2cc(NC(=O)c3ccccc3)ccc21
[22]
  IC50: 8.99 µM

## CC(=O)Oc1ccccc1C(=O)Nc1n[n+](-c2ccc(C)cc2)no1
[24]
  inhibition (INH): 30.7%
